Results taken from patent publication US9617259B2, “Histone deacetylase inhibitors and compositions and methods of use thereof” (CHDI Foundation, Inc., priority 2013, dated 2017).

Target: human catalytic domain HDAC4 protein (amino acids 648-1032) (Homo sapiens (Human), UniProt P56524)
Assay: Inhibition of HDAC4 catalytic domain enzymatic activity, fluorogenic substrate Boc-Lys(Tfa)-AMC
Conditions: read-out: Biochemical HDAC-4 IC50
Text: Analysis of Inhibition of HDAC4 with Class IIa Histone Deacetylase (HDAC) Inhibitors
The potency of Class IIa Histone Deacetylase (HDAC) inhibitors is quantified by measuring the Histone Deacetylase 4 (HDAC4) catalytic domain enzymatic activity using the fluorogenic substrate, Boc-Lys(Tfa)-AMC. The substrate is deacetylated to Boc-Lys-AMC by HDAC4. Cleavage by trypsin results in the release of the fluorophore AMC from the deacetylated substrate. The fluorescence of the sample is directly related to the histone deacetylase activity in the sample.
Serial dilutions of the HDAC inhibitors and control reference compound (1-(5-(3-((4-(1,3,4-oxadiazol-2-yl)phenoxy)methyl)-1,2,4-oxadiazol-5-yl)thiophen-2-yl)-2,2,2-trifluoroethanone) are made by first resuspending the lyophilized compound to a final concentration of 10 mM in 100% dimethyl sulfoxide (DMSO). Stocks of 60 μl aliquots of the 10 mM compound in DMSO are prepared and stored at −20° C. From one stock aliquot of each compound to be tested and the reference compound, a 16-point serial dilution is prepared according to
2 μl (200×) of each diluted solution and each control (full activity: 100% DMSO alone or full inhibition 1 mM) is stamped into V-bottomed polypropylene 384-well compound plates using either the Bravo (384-well head from Agilent) or 12.5 μl 16-channel Matrix multi-channel pipette (Matrix Technologies Ltd).
A working solution of enzyme is prepared from a 500 μg/ml stock aliquot of HDAC4 catalytic domain (thawed on ice) diluted to 0.2 μg/ml with assay buffer (50 mM Tris-HCl, 137 mM NaCl, 2.7 mM KCl, and 1 mM MgCl2 at pH 8 and equilibrated to room temperature) just prior to the addition of the enzyme to the assay.
5× (50 μM) substrate is prepared just prior to the addition to the assay. A 1 mM substrate stock is made by diluting a 100 mM Boc-Lys(Tfa)-AMC in DMSO solution 1:100 by adding it drop-wise to assay buffer (equilibrated to room temperature) while vortexing at slow speed to prevent precipitation. The 5× substrate is prepared by diluting the 1 mM substrate solution 1:20 by adding it drop-wise to assay buffer (equilibrated to room temperature) while vortexing at slow speed to prevent precipitation.
3× (30 μM) Developer/Stop Solution is prepared just prior to addition to the plate by diluting a stock solution of 10 mM reference compound 1:333 in 25 mg/ml trypsin (PAA Laboratories Ltd.) equilibrated to room temperature.
5 μl of each solution of 1:20 diluted compound from above is transferred to a clear bottomed, black, 384-well assay plate using the Bravo or the Janus (384-well MDT head from Perkin Elmer). Using a 16-channel Matrix multi-channel pipette, 35 μl of the working solution of HDAC4 catalytic domain enzyme (0.2 μg/ml in assay buffer) is transferred to the assay plate. The assay is then started by adding 10 μl of 5× (50 μM) substrate to the assay plates using either the Bravo, Janus or 16-channel Matrix multi-channel pipette. The assay plate is then shaken for two minutes on an orbital shaker at 900 rpm (rotations per minute). Next the plate is incubated for 15 minutes at 37° C. The reaction is stopped by adding 25 al of 3× (30 μM) developer/stop solution to the assay plates using either the Bravo, Janus or a 16-channel Matrix multi-channel pipette. Assay plates are then shaken for 5 minutes on an orbital shaker at 1200 rpm. Next, the assay plates are incubated at 37° C. for 1 hour in a tissue culture incubator. Finally, the fluorescence is measured (Excitation: 355 nm, Emission: 460 nm) using PerkinElmer EnVision in top read mode.

human catalytic domain HDAC4 protein (amino acids 648-1032), sequence (P56524 648-1032): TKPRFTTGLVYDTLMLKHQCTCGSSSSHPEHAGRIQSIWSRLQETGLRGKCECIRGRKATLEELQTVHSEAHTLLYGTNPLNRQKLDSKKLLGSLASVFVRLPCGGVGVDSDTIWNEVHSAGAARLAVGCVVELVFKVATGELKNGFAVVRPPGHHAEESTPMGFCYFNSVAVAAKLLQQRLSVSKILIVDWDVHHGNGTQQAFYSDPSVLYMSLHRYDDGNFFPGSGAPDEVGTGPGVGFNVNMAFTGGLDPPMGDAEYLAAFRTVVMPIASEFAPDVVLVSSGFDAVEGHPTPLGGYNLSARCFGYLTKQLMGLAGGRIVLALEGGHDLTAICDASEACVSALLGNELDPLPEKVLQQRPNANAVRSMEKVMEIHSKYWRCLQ

Structure (SMILES)	IC50
O=C(NO)[C@@]1(c2ccccc2)C=C(c2ccccc2)CC1 [Example 34, (R)—N-hydroxy-1,3-diphenylcyclopent-2-enecarboxamide]	31000 nM
O=C(NO)C1(c2ccccc2F)CC=CC1 [Example 31, 1-(2-fluorophenyl)-N-hydroxy-cyclopent-3-enecarboxamide]	8300 nM
Cc1c(F)cccc1[C@@]1(C(=O)NO)C=C(c2cncc(Cl)c2)CC1 [Example 11, (S)-3-(5-chloropyridin-3-yl)-1-(3-fluoro-2-methylphenyl)-N-hydroxycyclopent-2-enecarboxamide]	20 nM
O=C(NO)C1(c2ccccc2)CC=C(c2cncc(F)c2)CC1 (stereo not shown) [Example 43, 4-(5-fluoropyridin-3-yl)-N-hydroxy-1,2,3,6-tetrahydro-[1,1′-biphenyl]-1-carboxamide]	3600 nM
Cc1ccc(C2=C[C@](C(=O)NO)(c3cccc(F)c3C)CC2)cn1 [Example 25, (S)-1-(3-fluoro-2-methylphenyl)-N-hydroxy-3-(6-methylpyridin-3-yl)cyclopent-2-enecarboxamide]	10 nM
Cc1ncccc1C1=C[C@](C(=O)NO)(c2cccc(F)c2C)CC1 [Example 37, (S)-1-(3-fluoro-2-methylphenyl)-N-hydroxy-3-(2-methylpyridin-3-yl)cyclopent-2-enecarboxamide]	10 nM
Cc1c(F)cccc1[C@@]1(C(=O)NO)C=C(c2ccc3scnc3c2)CC1 [Example 40, (S)-3-(benzo[d]thiazol-5-yl)-1-(3-fluoro-2-methylphenyl)-N-hydroxycyclopent-2-enecarboxamide]	10 nM
O=C(NO)[C@]1(c2ccccc2)C=C(c2ccccc2)CC1 [Example 33, (S)—N-hydroxy-1,3-diphenylcyclopent-2-enecarboxamide]	190 nM
Cc1c(F)cccc1C1(C(=O)NO)CC=C(c2cncc(F)c2)CC1 (stereo not shown) [Example 44, 3′-fluoro-4-(5-fluoropyridin-3-yl)-N-hydroxy-2′-methyl-1,2,3,6-tetrahydro-[1,1′-biphenyl]-1-carboxamide]	490 nM
O=C(NO)[C@]1(c2ccccc2)C=C(c2cncc(F)c2)CC1 [Example 35, (S)-3-(5-fluoropyridin-3-yl)-N-hydroxy-1-phenylcyclopent-2-enecarboxamide]	340 nM
O=C(NO)C1(c2ccccc2)CC=CC1 [Example 30, N-hydroxy-1-phenyl-cyclopent-3-enecarboxamide]	12300 nM
Cc1c(F)cccc1[C@@]1(C(=O)NO)C=C(c2cncnc2)CC1 [Example 14, (S)-1-(3-fluoro-2-methylphenyl)-N-hydroxy-3-(pyrimidin-5-yl)cyclopent-2-enecarboxamide]	30 nM
Cc1ncc(Cl)cc1C1=C[C@](C(=O)NO)(c2cccc(F)c2C)CC1 [Example 36, (S)-3-(5-chloro-2-methylpyridin-3-yl)-1-(3-fluoro-2-methylphenyl)-N-hydroxycyclopent-2-enecarboxamide]	20 nM
Cc1c(F)cccc1[C@@]1(C(=O)NO)C=C(C2CC2)CC1 [Example 32, (S)-3-cyclopropyl-1-(3-fluoro-2-methylphenyl)-N-hydroxycyclopent-2-enecarboxamide]	40 nM
Cc1c(F)cccc1[C@@]1(C(=O)NO)C=C(c2cc(F)cnc2C2CC2)CC1 [Example 19, (S)-3-(2-cyclopropyl-5-fluoropyridin-3-yl)-1-(3-fluoro-2-methylphenyl)-N-hydroxycyclopent-2-enecarboxamide]	40 nM
Cc1ccccc1C1=C[C@@](C(=O)NO)(c2cccc(F)c2C)CC1 [Example 3, (R)-1-(3-fluoro-2-methyl-phenyl)-N-hydroxy-3-(o-tolyl)cyclopent-2-ene-1-carboxamide]	230 nM

Structure (SMILES)	IC50
Cc1c(F)cccc1[C@]1(C(=O)NO)C=C(c2cncc(F)c2)CC1 [Example 5, (R)-1-(3-fluoro-2-methylphenyl)-3-(5-fluoropyridin-3-yl)-N-hydroxycyclopent-2-enecarboxamide]	670 nM
Cc1c(F)cccc1[C@@]1(C(=O)NO)C=C(c2ccc3nccnc3c2)CC1 [Example 12, (S)-1-(3-fluoro-2-methylphenyl)-N-hydroxy-3-(quinoxalin-6-yl)cyclopent-2-enecarboxamide]	10 nM
Cc1c(F)cccc1[C@@]1(C(=O)NO)C=C(c2ccc3cnn(C(F)F)c3c2)CC1 [Example 39, (S)-3-(1-(difluoromethyl)-1H-indazol-6-yl)-1-(3-fluoro-2-methylphenyl)-N-hydroxycyclopent-2-enecarboxamide]	30 nM
Cc1c(F)cccc1[C@@]1(C(=O)NO)C=C(c2ccc(F)cn2)CC1 [Example 15, (S)-1-(3-fluoro-2-methylphenyl)-3-(5-fluoropyridin-2-yl)-N-hydroxycyclopent-2-enecarboxamide]	40 nM
Cc1c(F)cccc1[C@@]1(C(=O)NO)C=C(c2cccc3cnsc23)CC1 [Example 29, (S)-3-(benzo[d]isothiazol-7-yl)-1-(3-fluoro-2-methylphenyl)-N-hydroxycyclopent-2-enecarboxamide]	30 nM
Cc1ccccc1C1=C[C@](C(=O)NO)(c2cccc(F)c2C)CC1 [Example 4, (S)-1-(3-fluoro-2-methyl-phenyl)-N-hydroxy-3-(o-tolyl)cyclopent-2-ene-1-carboxamide]	20 nM
Cc1c(F)cccc1[C@@]1(C(=O)NO)C=C(c2ccccc2)CC1 [Example 2, (S)-1-(3-fluoro-2-methylphenyl)-N-hydroxy-3-phenylcyclopent-2-enecarboxamide]	20 nM
Cc1c(F)cccc1[C@@]1(C(=O)NO)C=C(c2ccc3nc(C(F)(F)F)cnc3c2)CC1 [Example 20, (S)-1-(3-fluoro-2-methylphenyl)-N-hydroxy-3-(2-(trifluoromethyl)quinoxalin-6-yl)cyclopent-2-enecarboxamide]	70 nM
Cc1ncc(C2=C[C@](C(=O)NO)(c3cccc(F)c3C)CC2)cc1Cl [Example 26, (S)-3-(5-chloro-6-methylpyridin-3-yl)-1-(3-fluoro-2-methylphenyl)-N-hydroxycyclopent-2-enecarboxamide]	10 nM
Cc1c(F)cccc1[C@@]1(C(=O)NO)C=C(c2cnn(C(F)F)c2)CC1 [Example 18, (S)-3-(1-(difluoromethyl)-1H-pyrazol-4-yl)-1-(3-fluoro-2-methylphenyl)-N-hydroxycyclopent-2-enecarboxamide]	20 nM
Cc1c(F)cccc1C1(C(=O)NO)CC=C(c2ccc3nccnc3c2)CC1 (stereo not shown) [Example 45, 3′-fluoro-N-hydroxy-2′-methyl-4-(quinoxalin-6-yl)-1,2,3,6-tetrahydro-[1,1′-biphenyl]-1-carboxamide]	550 nM
Cc1c(F)cccc1[C@@]1(C(=O)NO)C=C(c2cnc(C3CC3)nc2)CC1 [Example 24, (S)-3-(2-cyclopropylpyrimidin-5-yl)-1-(3-fluoro-2-methylphenyl)-N-hydroxycyclopent-2-enecarboxamide]	20 nM
Cc1c(F)cccc1[C@@]1(C(=O)NO)C=C(c2ccc3onc(C)c3c2)CC1 [Example 22, (S)-1-(3-fluoro-2-methylphenyl)-N-hydroxy-3-(3-methylbenzo[d]isoxazol-5-yl)cyclopent-2-enecarboxamide]	30 nM
Cc1c(F)cccc1[C@@]1(C(=O)NO)C=C(c2ccc3cnn(C)c3c2)CC1 [Example 38, (S)-1-(3-fluoro-2-methylphenyl)-N-hydroxy-3-(1-methyl-1H-indazol-6-yl)cyclopent-2-enecarboxamide]	10 nM
Cc1c(F)cccc1[C@@]1(C(=O)NO)C=C(c2cncc(F)c2)CC1 [Example 6, (S)-1-(3-fluoro-2-methylphenyl)-3-(5-fluoropyridin-3-yl)-N-hydroxycyclopent-2-enecarboxamide]	10 nM
